The subject of data set [1] is Human immunodeficiency virus 1. Nature of the data set: Antiviral activity against HIV1 BH10 in human MT4 cells assessed as inhibition of virus-induced cytopathogenicity after 4 days by MTS method. It counts as functional, organism-based, Human immunodeficiency virus type 1 BH10. The following applies: Human immunodeficiency virus 1, MT4, 96 h.
Data set [2] in a line: Cytotoxicity against human MT4 cells by MTS method. It counts as cell-based.
The subject of a further data set is Dengue virus. The experiment in a line: Antiviral activity against Dengue virus at 75 uM. It counts as functional, organism-based.
In another data set the test system is Yellow fever virus. The experiment in a line: Antiviral activity against Yellow fever virus at 75 uM. Format: functional, organism-based.
The test system of the next data set is West Nile virus. The experiment in a line: Antiviral activity against West Nile virus at 75 uM. It counts as functional, organism-based.
The test system of the next data set is CCRF S-180. Nature of the data set: Growth inhibition of mouse S180 cells. It counts as functional, cell-based.
For another data set, the system named is L1210. The experiment in a line: Growth inhibition of mouse L1210 cells. Format: functional, cell-based.
A further data set has as its system HL-60. Nature of the data set: Growth inhibition of human HL60 cells. It counts as functional, cell-based.

Calls of active or inactive are those of the source. The rule behind the calls is not given here.

As to `Cc1cn([C@H]2C[C@H](N=[N+]=[N-])[C@@H](CO)O2)c(=O)[nH]c1=O` [ZIDOVUDINE], in data set [1], the EC50 was 0.009 µM. Further, the CC50 in data set [2] turned out to be 61 µM.

In the case of `Nc1ncnc2c([C@H]3CC[C@@H](CO)O3)scc12`, the result in the data set with Dengue virus, in the data set with Yellow fever virus and in the data set on West Nile virus was inactive. The EC50 in data set [1] is over 75 µM. This molecule also registered a CC50 in data set [2] of over 75 µM.

Consider `O=c1[nH]cnc2c([C@@H]3O[C@H](CO)[C@@H](O)[C@H]3O)scc12`, for which the outcome with Dengue virus, with Yellow fever virus and in the data set on West Nile virus was inactive. Also, the EC50 in data set [1] is over 100 µM. In data set [2], this molecule gave a CC50 of over 100 µM.

Take `Nc1ncnc2c([C@H]3C=C[C@@H](CO)O3)scc12`: the outcome in the data set on Dengue virus, in the data set on Yellow fever virus and with West Nile virus was inactive. Also, the EC50 in data set [1] is over 7.3 µM. For the same molecule, the CC50 in data set [2] was found to be 7.3 µM.

Take `OC[C@H]1O[C@@H](c2scc3c(=S)[nH]cnc23)[C@H](O)[C@@H]1O`: the IC50 with CCRF S-180 was 29.1 µM; in the data set on L1210, 17.6 µM; with HL-60, 8.17 µM. Moreover, the result with Dengue virus, with Yellow fever virus and with West Nile virus was inactive. Further, the EC50 in data set [1] was over 2.9 µM. Moreover, the CC50 in data set [2] was 2.9 µM.

On to `OC[C@@H]1C=C[C@H](c2scc3c(O)ncnc23)O1`, for which the result in the data set on Dengue virus, in the data set on Yellow fever virus and in the data set on West Nile virus was inactive. Moreover, in data set [1], the EC50 was over 100 µM. This molecule showed a CC50 in data set [2] of over 100 µM.

`OC[C@@H]1CC[C@H](c2scc3c(O)ncnc23)O1`: the result in the data set with Dengue virus, in the data set on Yellow fever virus and in the data set on West Nile virus was inactive. Moreover, the EC50 in data set [1] is over 100 µM. In data set [2], this molecule yielded a CC50 of over 100 µM.

Take `CSc1ncnc2c([C@H]3C=C[C@@H](CO)O3)scc12`: the outcome in the data set with Dengue virus, with Yellow fever virus and in the data set with West Nile virus was inactive. Further, the EC50 in data set [1] is over 70 µM. The molecule also returned a CC50 in data set [2] of 70 µM.
